Each structure is given as a SMILES string.

Here are results for one compound from patent US12551481B2, “Molecular targets for addiction” (The Jackson Laboratory, priority 2019, dated 2026).

In the assay the test system is Htr1d expression. The assay is described as follows: Htr1d expression in founder strains of CC/DO mice after repeated exposure to cocaine or sham (saline). In kind it is in vivo, mouse. The settings on record: CAST/EiJ males and 129S1/SvlmJ males; repeated exposure over days. The text has this: Identification of a target for addiction treatment was undertaken using Diversity Outbred (DO) stock of mice and the eight founding inbred strains used to generate the DO stock, which are a genetically diverse collect of mice used to validate […] trait loci (QTLs) linked to disease susceptibility, drug resistance, or behavioral phenotypes (see, e.g., Saul et al., 2019, Trends in Genetics (PMID: 31133439)). DO mice were developed by random outcross mating of 160 incipient Collaborative Cross recombinant inbred mouse lines, which were created by crossing eight unique and genetically diverse inbred mouse strains. […] Upregulation after cocaine exposure was also observed in PWK/PhJ males.

Regarding `COC(=O)[C@H]1[C@@H](OC(=O)c2ccccc2)C[C@@H]2CC[C@H]1N2C` [cocaine], the “Htr1d expression differences, cocaine compared to sham” value is reported as 2 fold.
